The structures appear in SMILES notation.

Three compounds from publication doi:10.1101/2021.03.24.436736v2 (biorxiv, 2023) can be followed below.

For one test, the target named is T1, PxRDL1 (Plutella xylostella, UniProt C0L7I5).
T1 sequence (C0L7I5 26-485): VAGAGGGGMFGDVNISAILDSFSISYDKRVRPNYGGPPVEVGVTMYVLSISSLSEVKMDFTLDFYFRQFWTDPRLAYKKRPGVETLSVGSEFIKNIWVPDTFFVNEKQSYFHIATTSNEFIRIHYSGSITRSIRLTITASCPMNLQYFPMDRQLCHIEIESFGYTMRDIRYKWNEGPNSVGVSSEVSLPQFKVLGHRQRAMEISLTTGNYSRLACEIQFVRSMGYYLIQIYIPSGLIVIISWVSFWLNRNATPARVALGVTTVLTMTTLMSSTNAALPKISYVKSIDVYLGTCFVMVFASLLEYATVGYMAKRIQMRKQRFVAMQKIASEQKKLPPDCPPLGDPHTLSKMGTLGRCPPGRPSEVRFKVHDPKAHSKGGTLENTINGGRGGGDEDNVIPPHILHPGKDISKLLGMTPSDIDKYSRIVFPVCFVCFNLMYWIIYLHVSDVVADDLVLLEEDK
In words: two-electrode voltage clamp, Xenopus laevis oocytes. Format: cell-based. Background: Two-electrode voltage clamp holds a large cell at a set potential and records current.

Test [1] concerns the target T2, PxRDL2 (Plutella xylostella, UniProt C0L7I7).
T2 sequence (C0L7I7 30-520): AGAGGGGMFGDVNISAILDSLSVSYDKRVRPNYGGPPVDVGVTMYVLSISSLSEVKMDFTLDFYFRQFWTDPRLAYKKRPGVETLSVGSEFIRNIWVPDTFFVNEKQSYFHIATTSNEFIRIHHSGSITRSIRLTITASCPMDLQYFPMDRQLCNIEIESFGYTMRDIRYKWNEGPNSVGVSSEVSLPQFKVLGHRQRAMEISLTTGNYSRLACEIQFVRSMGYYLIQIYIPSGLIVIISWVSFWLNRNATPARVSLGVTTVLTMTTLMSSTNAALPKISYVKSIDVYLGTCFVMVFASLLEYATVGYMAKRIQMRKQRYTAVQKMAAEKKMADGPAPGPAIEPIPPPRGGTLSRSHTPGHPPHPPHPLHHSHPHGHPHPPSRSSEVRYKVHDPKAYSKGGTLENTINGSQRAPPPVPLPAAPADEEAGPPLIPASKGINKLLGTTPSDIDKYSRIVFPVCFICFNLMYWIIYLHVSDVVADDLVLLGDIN
The test is described as follows: cell-based. Further details: species or system Xenopus laevis oocytes.

For test [2], the target named is T2, PxRDL2. In words: two-electrode voltage clamp, Xenopus laevis oocytes. Format: cell-based.

The term IC50 denotes the concentration at which inhibition is half-maximal. A higher IC50 goes with weaker potency. In the case of `CCOC(=O)C1(C(=O)OCC)Nc2c([S+]([O-])C(F)(F)F)c(C#N)nn2-c2c(Cl)cc(C(F)(F)F)cc21` (stereo not drawn) [4a, diethyl 9-chloro-2-cyano-7-(trifluoromethyl)-3-((trifluoromethyl)sulfinyl)pyrazolo[1,5-α]quin azoline-5,5(4H)-dicarboxylate], the values for the IC50 against PxRDL1 and against PxRDL2 [1] were 2020 nM and over 30000 nM, respectively.

Turning to `Cc1cc(C2=NOC(c3cc(Cl)cc(Cl)c3)(C(F)(F)F)C2)ccc1C(=O)NCC(=O)NCC(F)(F)F` (stereo not drawn) [fluralaner, 4-[5-(3,5-dichlorophenyl)-5-(trifluoromethyl)-4H-1,2-oxazol-3-yl]-2-methyl-N-[2-oxo-2-(2,2,2-trifluoroethylamino)ethyl]benzamide], the figures for the IC50 at PxRDL1 and on PxRDL2 [2] were 10 nM and 18 nM, respectively.

As to `CON=CNC(=O)c1ccc(C2=NOC(c3cc(Cl)cc(Cl)c3)(C(F)(F)F)C2)cc1C` (stereo not drawn) [fluxametamide, 4-[5-(3,5-dichlorophenyl)-5-(trifluoromethyl)-4H-1,2-oxazol-3-yl]-N-[(E)-methoxyiminomethyl]-2-methylbenzamide], the IC50 at PxRDL1 came to 20 nM; against PxRDL2 [2], 17 nM.
